Measured values taken from PMC4076210, “Discovery of Novel AKT Inhibitors with Enhanced Anti-Tumor Effects in Combination with the MEK Inhibitor” (PLoS ONE, 2014).

Assays:
[1] = test system: hematological tumor cell lines; experiment: 3-day proliferation assay (CellTiter-Glo); assay type: cell-based, human; conditions: Homo sapiens
Protocol: Various tumor cell lines were obtained from different sources including; the American Type Cell Culture Collection, the Developmental Therapeutics Program, the National Cancer Institute, the German Resource Center for Biological Material and the European Collection of Animal Cell Cultures. Cell lines were typically grown in […] containing 10% FBS. Some cell lines were grown in media specified by the vendor. A 3-day proliferation assay using CellTiter-Glo (CTG, Promega) was performed to measure the growth inhibition by the compounds at 0–30 µM. Cell growth was determined relative to untreated (DMSO) controls. EC50's were calculated from inhibition curves using a 4- or 6-parameter fitting algorithm in the Assay Client application.

PKCι(h) = biological target: T1, PKCι(h) (Homo sapiens, UniProt P41743); experiment: Kinase panel; assay type: biochemical
T1 construct: purchased Millipore KinaseProfiler
T1 sequence (P41743 1-596): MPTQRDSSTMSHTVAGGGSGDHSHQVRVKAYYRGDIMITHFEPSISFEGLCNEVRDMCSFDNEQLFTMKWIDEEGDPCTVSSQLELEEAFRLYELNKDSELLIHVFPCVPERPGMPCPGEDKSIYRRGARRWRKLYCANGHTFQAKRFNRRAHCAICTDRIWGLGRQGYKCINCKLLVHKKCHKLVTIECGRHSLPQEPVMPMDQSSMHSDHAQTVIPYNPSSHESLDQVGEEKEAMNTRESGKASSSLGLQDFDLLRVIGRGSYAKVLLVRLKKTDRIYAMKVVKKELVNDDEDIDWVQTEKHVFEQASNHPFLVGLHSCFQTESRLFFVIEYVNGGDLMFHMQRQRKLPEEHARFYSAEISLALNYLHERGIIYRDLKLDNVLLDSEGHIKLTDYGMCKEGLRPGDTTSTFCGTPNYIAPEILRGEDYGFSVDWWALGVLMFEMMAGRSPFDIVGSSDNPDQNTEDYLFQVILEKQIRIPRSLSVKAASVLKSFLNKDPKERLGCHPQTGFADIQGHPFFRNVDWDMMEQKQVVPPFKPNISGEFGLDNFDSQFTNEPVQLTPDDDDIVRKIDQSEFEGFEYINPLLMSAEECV

Molecule `Cn1ncc(Cl)c1-c1cc(C(=O)N[C@H](CN)Cc2cccc(F)c2)sc1Cl` [GSK2110183] has an IC50 ([1]; Kasumi 1, Kasumi-1 cell line, AML, Myeloblast) of 0.131 µM, an IC50 ([1]; Kasumi-2 cell line, AML, Myeloblast) of 0.996 µM and an IC50 ([1]; L-428, L428 cell line, Hodgkin's Lymphoma, Unspecified) of 0.00135 µM. For the same molecule, the IC50 ([1]; MC116, MC116 cell line, Burkitt's Lymphoma, B Cell) was 1.08 µM, the IC50 ([1]; MEG-01, MEG01 cell line, CML, Megakaryoblastic) was 6.14 µM and the IC50 ([1]; MHH-CALL-3 cell line, ALL, pre-B Cell) was 1.22 µM. For the same molecule, the IC50 ([1]; MHH-PREB-1, MHH-PREB-1 cell line, Non-Hodgkin's Lymphoma, B Cell) was 1.92 µM, the IC50 ([1]; ML-2, ML-2 cell line, AML, Myelomonocytic) was 0.981 µM and the IC50 ([1]; MOLT-3, MOLT3 cell line, ALL, T Cell) was 0.062 µM. For the same molecule, the IC50 ([1]; MOLT-4, Molt-4 cell line, ALL, T Cell) was 0.014 µM, the IC50 ([1]; MOLT-16, MOLT16 cell line, ALL, T Cell) was 0.481 µM and the IC50 ([1]; MV4-11, MV-4-11 cell line, AML, Myelomonocytic) was 1.27 µM. The IC50 ([1]; NALM-6, Nalm-6 cell line, ALL, pre-B Cell) was 0.352 µM, the IC50 ([1]; NC-37, NC-37 cell line, Burkitt's Lymphoma, B Cell) was 1.78 µM and the IC50 ([1]; NOMO-1, Nomo-1 cell line, AML, B Cell) was 0.104 µM. For the same molecule, the IC50 ([1]; NU-DHL-1, NU-DHL-1 cell line, Burkitt's Lymphoma, B Cell) was 0.064 µM, the IC50 ([1]; OCI-AML2, OCI-AML-2 cell line, AML, B Cell) was 10.3 µM and the IC50 ([1]; OCI-AML-3, OCI-AML-3 cell line, AML, B Cell) was 0.113 µM. The IC50 ([1]; OCI-M1, OCI-M1 cell line, AML, B Cell) was 1.13 µM, the IC50 ([1]; P3HR-1, P3HR-1 cell line, Burkitt's Lymphoma, B Cell) was 0.069 µM and the IC50 ([1]; PLB-985, PLB985 cell line, AML, B Cell) was 2.99 µM. It also gave an IC50 ([1]; Pfeiffer, Pfeiffer cell line, Non-Hodgkin's Lymphoma, B Cell) of 0.013 µM, an IC50 ([1]; RCH-ACV cell line, ALL, pre-B Cell) of 0.668 µM and an IC50 ([1]; RCK8, RC-K8 cell line, Non-Hodgkin's Lymphoma (Histiocytic), B Cell) of 5.39 µM. For the same molecule, the IC50 ([1]; REH, Reh cell line, ALL, pre-B Cell) was 0.292 µM, the IC50 ([1]; RL, RL cell line, Non-Hodgkin's Lymphoma, B Cell) was 0.225 µM and the IC50 ([1]; RPMI-6666, RPMI 6666 cell line, Hodgkin's Lymphoma, Lymphoblast) was 0.135 µM. The IC50 ([1]; RS4-11, RS4;11 cell line, ALL, B Cell) was 0.539 µM, the IC50 ([1]; Raji, Raji cell line, Burkitt's Lymphoma, B Cell) was 6.59 µM and the IC50 ([1]; Rec1, REC-1 cell line, Non-Hodgkin's Lymphoma, B Cell) was 3.69 µM. It also gave an IC50 ([1]; SC-1, SC1 cell line, Burkitt's Lymphoma, B Cell) of 2.13 µM, an IC50 ([1]; SEM cell line, ALL, pre-B Cell) of 0.347 µM and an IC50 ([1]; SKO-007, SKO-007 cell line, Multiple Myeloma, B Cell) of 6.77 µM. It also gave an IC50 ([1]; SR, SR cell line, Non-Hodgkin's Lymphoma, Lymphoblast) of 2.51 µM, an IC50 ([1]; ST486, ST486 cell line, Burkitt's Lymphoma, B Cell) of 2.45 µM and an IC50 ([1]; SU-DHL10, SU-DHL-10 cell line, Non-Hodgkin's Lymphoma, B Cell) of 0.175 µM. It also gave an IC50 ([1]; SU-DHL-4, SU-DHL-4 cell line, Non-Hodgkin's Lymphoma, B Cell) of 0.114 µM, an IC50 ([1]; SU-DHL-5, SU-DHL-5 cell line, Non-Hodgkin's Lymphoma, B Cell) of 0.153 µM and an IC50 ([1]; SU-DHL-6, SU-DHL-6 cell line, Non-Hodgkin's Lymphoma, B Cell) of 0.063 µM. The IC50 ([1]; SU-DHL-16, SU-DHL-16 cell line, Non-Hodgkin's Lymphoma, B Cell) was 0.062 µM, the IC50 ([1]; SUP-B15, SUP B15 cell line, ALL, B Cell) was 1.94 µM and the IC50 ([1]; T-cell, 8E5 cell line, ALL, T Cell) was 0.043 µM. It also gave an IC50 ([1]; T-cell, CEM/C3 cell line, ALL, T Cell) of 0.035 µM, an IC50 ([1]; T-cell, I2.1 cell line, ALL, T Cell) of 0.048 µM and an IC50 ([1]; T-cell, J.Cam.1.6 cell line, ALL, T Cell) of 0.11 µM. For the same molecule, the IC50 ([1]; T-cell, J.RT-T3.5 cell line, ALL, T Cell) was 0.054 µM, the IC50 ([1]; T-cell, JR45.01 cell line, ALL, T Cell) was 0.033 µM and the IC50 ([1]; T-cell, LOUCY cell line, ALL, T Cell) was 0.063 µM. For the same molecule, the IC50 ([1]; T-cell, MJ cell line, Non-Hodgkin's Lymphoma (CTCL), T Cell) was 4.73 µM, the IC50 ([1]; T-cell, SUPTI(VB) cell line, ALL, T Cell) was 0.2 µM and the IC50 ([1]; TO 175.T, TO 175.T cell line, Hodgkin's Lymphoma, Unspecified) was 8.49 µM. For the same molecule, the IC50 ([1]; Toledo, Toledo cell line, Non-Hodgkin's Lymphoma, B Cell) was 1.15 µM, the IC50 ([1]; U-937, U937 cell line, Non-Hodgkin's Lymphoma (Histiocytic), Monocyte) was 0.026 µM and the inhibition at 0.5 µM (PKCι(h)) was 1%. The inhibition at 10 µM (PKCι(h)) was 50%.
